Each molecule was assayed against T1, GnRH receptor (Homo sapiens, UniProt P30968) (assay: GnRH receptor membrane binding assay). Conditions: GnRH receptor membrane binding assay, [125I]-labeled GnRH peptide; read-out: Ki.
T1 construct: expressed in transfected cells
T1 sequence (P30968 1-328): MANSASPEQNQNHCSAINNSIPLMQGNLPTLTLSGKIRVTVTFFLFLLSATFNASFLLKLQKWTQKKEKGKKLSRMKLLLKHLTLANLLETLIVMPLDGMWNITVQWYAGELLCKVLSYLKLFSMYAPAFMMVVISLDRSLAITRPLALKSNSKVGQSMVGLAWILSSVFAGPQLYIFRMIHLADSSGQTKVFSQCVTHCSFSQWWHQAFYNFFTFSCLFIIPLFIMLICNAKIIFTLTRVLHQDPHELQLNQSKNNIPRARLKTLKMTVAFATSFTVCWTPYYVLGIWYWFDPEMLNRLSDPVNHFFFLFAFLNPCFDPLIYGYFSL
Protocol: Radio-Iodination of GnRH Peptide
The GnRH analog is labeled by the chloramine-T method. […] The reaction is stopped by the addition of 60 μg sodium metabisulfite and the free iodine is removed by passing the iodinated mixture through a C-8 Sep-Pak cartridge (Millipore Corp., Milford, Mass.). The peptide is eluted with a small volume of 80% acetonitrile/water. […] The purified radioactive peptide is stored in 0.1% BSA/20% acetonitrile/0.1% TFA at −80° C. and can be used for up to 4 weeks.
GnRH Receptor Membrane Binding Assay
Cells stably, or transiently, transfected with GnRH receptor expression vectors are harvested, resuspended in 5% sucrose and homogenized using a polytron homogenizer (2×15 sec). Nucleii are removed by centrifugation (3000×g for 5 min.), and the supernatant centrifuged (20,000×g for 30 min, 4° C.) to collect the membrane fraction. The final membrane preparation is resuspended in binding buffer (10 mM Hepes (pH 7.5), 150 mM NaCl, and 0.1% BSA) and stored at −70° C. Binding reactions are performed in a Millipore MultiScreen 96-well filtration plate assembly with polyethylenimine coated GF/C membranes. […] The reaction is terminated after 90 minutes by application of vacuum and washing (2×) with phosphate buffered saline. Bound radioactivity is measured using 96-well scintillation counting (Packard Topcount) or by removing the filters from the plate and direct gamma counting. Ki values are calculated from competition binding data using non-linear least squares regression using the Prism software package (GraphPad Software).

Ki [nM] | SMILES
< 100 | Cc1c(-c2ccc3c(c2)OCO3)c(=O)n(CCNC2CCC(C)CC2)c(=O)n1Cc1c(F)cccc1F (stereo not drawn) [9-320]
< 100 | Cc1c(-c2ccc3c(c2)OCO3)c(=O)n(CCN2CCN(c3cccc(C(F)(F)F)c3)CC2)c(=O)n1Cc1c(F)cccc1F [9-361]
< 100 | CCOC(=O)N1CCN(CCn2c(=O)c(-c3ccc4c(c3)OCO4)c(C)n(Cc3c(F)cccc3F)c2=O)CC1 [9-362]
< 100 | COc1cccc(-c2c(C)n(Cc3c(F)cccc3F)c(=O)n(CC(C)NC(C)C(C)C)c2=O)c1F (stereo not drawn) [9-399]
< 100 | COc1cccc(-c2c(C)n(Cc3c(F)cccc3F)c(=O)n(C(C)CNCc3ccccn3)c2=O)c1 (stereo not drawn) [9-402]
< 100 | COc1cccc(-c2c(C)n(Cc3c(F)cccc3F)c(=O)n(C[C@H](C)N(C)Cc3ccccn3)c2=O)c1F [9-409]
< 100 | Cc1cccnc1CCN1CCCC1Cn1c(=O)cc(C)n(Cc2c(F)cccc2F)c1=O (stereo not drawn) [9-415]
< 100 | COc1cccc(-c2c(C)n(Cc3c(F)cccc3F)c(=O)n(C[C@H](Cc3ccccc3)N(C)C)c2=O)c1F [9-443]
< 100 | COc1cccc(-c2c(C)n(Cc3c(F)cccc3F)c(=O)n([C@H](C)CNCc3ccccc3F)c2=O)c1 [9-446]
< 100 | COc1cccc(-c2c(C)n(Cc3c(F)cccc3F)c(=O)n([C@H](C)CNCc3cccc(F)c3)c2=O)c1 [9-448]
< 100 | COc1cccc(-c2c(C)n(Cc3c(F)cccc3F)c(=O)n([C@H](C)CNCc3cc(C)cc(C)c3)c2=O)c1 [9-454]
< 100 | COc1cccc(-c2c(C)n(Cc3c(F)cccc3F)c(=O)n(C[C@H](C)NCCc3ccccn3)c2=O)c1F [9-470]
< 100 | COc1cccc(-c2c(C)n(Cc3c(F)cccc3F)c(=O)n([C@H](C)CNCc3cccc(C)c3)c2=O)c1 [9-473]
< 100 | COc1cccc(CNC[C@@H](C)n2c(=O)c(-c3cccc(OC)c3)c(C)n(Cc3c(F)cccc3F)c2=O)c1 [9-477]
< 100 | COc1cccc(-c2c(C)n(Cc3c(F)cccc3F)c(=O)n([C@H](C)CNCc3ccc4c(c3)CCO4)c2=O)c1F [9-495]
< 100 | COc1cccc(-c2c(C)n(Cc3c(F)cccc3F)c(=O)n([C@H](C)CNCc3cccc4ccccc34)c2=O)c1F [9-502]
< 100 | COc1cccc(-c2c(C)n(Cc3c(F)cccc3F)c(=O)n([C@H](C)CNCc3cc(Cl)ccc3O)c2=O)c1F [9-503]
< 100 | COc1cccc(-c2c(C)n(Cc3c(F)cccc3F)c(=O)n([C@H](C)CNCc3c[nH]c4ccccc34)c2=O)c1F [9-509]
< 100 | COc1cccc(-c2c(C)n(Cc3c(F)cccc3F)c(=O)n([C@H](C)CNCc3ccccn3)c2=O)c1F [9-512]
< 100 | COc1cccc(-c2c(C)n(Cc3c(F)cccc3F)c(=O)n([C@H](C)CNCc3c(F)cccc3Cl)c2=O)c1 [9-514]
< 100 | CN[C@@H](Cc1ccccc1)Cn1c(=O)c(-c2cccc(OC)c2F)c(C)n(Cc2c(F)cccc2F)c1=O [9-517]
< 100 | COc1cccc(-c2c(C)n(Cc3c(F)cccc3F)c(=O)n(C[C@@H](C)NCc3ccsc3)c2=O)c1F [9-570]
< 100 | COc1cccc(-c2c(C)n(Cc3c(F)cccc3F)c(=O)n(CC(C)NCC3CCCCC3)c2=O)c1F (stereo not drawn) [9-589]
< 100 | COc1cccc(-c2c(C)n(Cc3c(F)cccc3F)c(=O)n(CC(C)NCc3cc(C)c(C)o3)c2=O)c1F (stereo not drawn) [9-595]
< 100 | COc1cccc(-c2c(C)n(Cc3c(F)cccc3F)c(=O)n(C[C@H](C)NCc3[nH]cnc3C)c2=O)c1F [9-602]
< 100 | CCCCN(CCCC)[C@H](C)Cn1c(=O)c(-c2cccc(OC)c2F)c(C)n(Cc2c(F)cccc2F)c1=O [9-612]
< 100 | COc1cccc(-c2c(C)n(Cc3c(F)cccc3F)c(=O)n(C[C@@H](C)NC(C)C(C)C)c2=O)c1F (stereo partly drawn) [9-613]
< 100 | COc1cccc(-c2c(C)n(Cc3c(F)cccc3F)c(=O)n(CC(C)NCc3cccn3C)c2=O)c1F (stereo not drawn) [9-618]

Further lines, the molecule ahead of its results:

SMILES | Ki [nM]
Cc1c(-c2ccc3c(c2)OCO3)c(=O)n(CCNCC(F)(F)F)c(=O)n1Cc1c(F)cccc1F [9-164] | < 100
Cc1c(-c2ccc3c(c2)OCCO3)c(=O)n(CCNCC(F)(F)F)c(=O)n1Cc1c(F)cccc1F [9-191] | < 100
Cc1c(-c2ccc3c(c2)OCCO3)c(=O)n(CCN2CCN(c3ccccc3)CC2)c(=O)n1Cc1c(F)cccc1F [9-199] | < 100
Cc1c(-c2ccc3c(c2)OCCO3)c(=O)n(CCN(CCC#N)Cc2cccnc2)c(=O)n1Cc1c(F)cccc1F [9-200] | < 100
COc1ccccc1CCNCCn1c(=O)c(-c2ccc(Oc3ccccc3)cc2)c(C)n(Cc2c(F)cccc2F)c1=O [9-215] | < 100
Cc1c(-c2ccc(Oc3ccccc3)cc2)c(=O)n(CCN[C@@H](C)c2ccc3ccccc3c2)c(=O)n1Cc1c(F)cccc1F [9-219] | < 100
CCN(CC)CCn1c(=O)c(-c2ccc(Oc3ccccc3)cc2)c(C)n(Cc2c(F)cccc2F)c1=O [9-224] | < 100
Cc1ccc(N2CCN(CCn3c(=O)c(-c4ccc(Oc5ccccc5)cc4)c(C)n(Cc4c(F)cccc4F)c3=O)CC2)cc1 [9-225] | < 100
Cc1c(-c2ccccc2F)c(=O)n(CCNCCN(C)C)c(=O)n1Cc1c(F)cccc1F [9-227] | < 100
COc1ccc(CCNCCn2c(=O)c(-c3ccccc3F)c(C)n(Cc3c(F)cccc3F)c2=O)cc1OC [9-229] | < 100
Cc1c(-c2ccccc2F)c(=O)n(CCN(C)C)c(=O)n1Cc1c(F)cccc1F [9-237] | < 100
CCCN1CCN(CCn2c(=O)c(-c3ccccc3F)c(C)n(Cc3c(F)cccc3F)c2=O)CC1 [9-240] | < 100
Cc1c(-c2ccc3c(c2)OCO3)c(=O)n(CCNCCN(C)C)c(=O)n1Cc1c(F)cccc1F [9-242] | < 100
COc1ccc(CCNCCn2c(=O)c(-c3ccc4c(c3)OCO4)c(C)n(Cc3c(F)cccc3F)c2=O)cc1OC [9-244] | < 100
Cc1c(-c2ccc3c(c2)OCO3)c(=O)n(CCNCC2CC2)c(=O)n1Cc1c(F)cccc1F [9-245] | < 100
Cc1c(-c2ccc3c(c2)OCO3)c(=O)n(CCN[C@@H](C)c2ccc3ccccc3c2)c(=O)n1Cc1c(F)cccc1F [9-247] | < 100
CCN(CC)CCN(C)CCn1c(=O)c(-c2ccc3c(c2)OCO3)c(C)n(Cc2c(F)cccc2F)c1=O [9-249] | < 100
CCN(CC)CCN(C)CCn1c(=O)c(-c2ccc(C(C)C)cc2)c(C)n(Cc2c(F)cccc2F)c1=O [9-263] | < 100
Cc1c(-c2ccc3c(c2)OCCO3)c(=O)n(CCNCCN(C)C)c(=O)n1Cc1c(F)cccc1F [9-270] | < 100
Cc1c(-c2ccc3c(c2)OCCO3)c(=O)n(CCN[C@@H](C)c2ccc3ccccc3c2)c(=O)n1Cc1c(F)cccc1F [9-275] | < 100
Cc1ccc(N2CCN(CCn3c(=O)c(-c4ccc5c(c4)OCCO5)c(C)n(Cc4c(F)cccc4F)c3=O)CC2)cc1 [9-281] | < 100
Cc1c(/C=C/c2ccccc2)c(=O)n(CCN(C)CCc2ccccn2)c(=O)n1Cc1c(F)cccc1F [9-287] | < 100
COc1cccc(-c2c(C)n(Cc3c(F)cccc3F)c(=O)n(C[C@H](C)NCc3ccccc3)c2=O)c1F [9-304] | < 100
COc1cccc(-c2c(C)n(Cc3c(F)cccc3F)c(=O)n(C[C@H](C)N(C)Cc3ccccc3)c2=O)c1F [9-305] | < 100
COc1cccc(-c2c(C)n(Cc3c(F)cccc3F)c(=O)n([C@H](C)CNCc3ccccc3)c2=O)c1 [9-312] | < 100
COc1cccc(-c2c(C)n(Cc3c(F)cccc3F)c(=O)n(C[C@@H](C)N(C)CCc3ccccn3)c2=O)c1 [9-318] | < 100

Reference: patent US7462625B2, “Gonadotropin-releasing hormone receptor antagonists and methods relating thereto” (Neurocrine Biosciences, Inc., priority 2000, dated 2008)
